Results on 29 compounds are retold here after patent US10099993B2, “Metabotropic glutamate receptor positive allosteric modulators (PAMS) and uses thereof” (Sanford-Burnham Medical Research Institute, priority 2014, dated 2018).

A value given as a limit tells only on which side of the number the result lay.

One may read the EC50 as the concentration needed to bring the measured effect to its halfway point.

Assay [1] addresses mGlu3 (Rattus norvegicus (Rat), UniProt P31422). Put plainly: mGlu3 GIRK thallium flux assay.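 For all read-outs here: kinetic fluorescence slope read shortly after thallium plus agonist addition, scaled between vehicle and maximal agonist control.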 The settings on record: for mGlu3 PAM Max / EC50: PAM mode, mean ± SEM; for mGlu3 PAM Max: % Glutamate Max; for EC50: read-out: mGlu3 PAM EC50, test compound, then EC20 glutamate […] later in the presence of thallium; for Emax: read-out: mGlu3 PAM Max.
Assay [2] has as its target mGlu2 (Rattus norvegicus (Rat), UniProt P31421). The assay is described as follows: mGlu2 GIRK thallium flux assay.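 For all read-outs here: Cell-based assay, rate of fluorescence rise right after thallium plus agonist addition read on a kinetic imaging plate reader, normalized to vehicle and maximal agonist control.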 The settings on record: for mGlu2 PAM Max / EC50: PAM mode, mean ± SEM, at least three experiments; for mGlu2 PAM Max: % Glutamate Max; for EC50: read-out: mGlu2 PAM EC50, test compound, then EC20 glutamate […] later in the presence of thallium; for Emax: read-out: mGlu2 PAM Max.

Chain of mGlu2 (P31421 19-872): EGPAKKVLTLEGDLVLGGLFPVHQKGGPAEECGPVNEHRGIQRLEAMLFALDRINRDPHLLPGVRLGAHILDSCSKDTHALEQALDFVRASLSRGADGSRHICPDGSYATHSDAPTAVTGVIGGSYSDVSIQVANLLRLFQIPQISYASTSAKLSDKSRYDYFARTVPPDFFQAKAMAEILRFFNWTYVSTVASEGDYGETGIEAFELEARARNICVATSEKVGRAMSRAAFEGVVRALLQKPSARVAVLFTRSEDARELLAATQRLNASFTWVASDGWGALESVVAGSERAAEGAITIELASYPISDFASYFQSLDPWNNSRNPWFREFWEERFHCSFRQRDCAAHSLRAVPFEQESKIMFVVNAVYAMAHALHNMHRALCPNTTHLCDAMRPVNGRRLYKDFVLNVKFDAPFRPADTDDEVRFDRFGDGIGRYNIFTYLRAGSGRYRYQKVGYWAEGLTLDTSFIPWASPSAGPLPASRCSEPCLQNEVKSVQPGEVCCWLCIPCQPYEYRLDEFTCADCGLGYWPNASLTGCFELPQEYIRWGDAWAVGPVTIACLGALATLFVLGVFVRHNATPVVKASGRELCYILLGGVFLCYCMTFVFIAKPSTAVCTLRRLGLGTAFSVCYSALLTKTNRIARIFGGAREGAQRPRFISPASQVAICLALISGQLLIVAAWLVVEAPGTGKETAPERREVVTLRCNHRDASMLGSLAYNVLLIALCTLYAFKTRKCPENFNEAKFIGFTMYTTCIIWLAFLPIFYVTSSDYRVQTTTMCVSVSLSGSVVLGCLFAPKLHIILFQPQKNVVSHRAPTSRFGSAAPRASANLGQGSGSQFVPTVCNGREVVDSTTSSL
Chain of mGlu3 (P31422 23-879): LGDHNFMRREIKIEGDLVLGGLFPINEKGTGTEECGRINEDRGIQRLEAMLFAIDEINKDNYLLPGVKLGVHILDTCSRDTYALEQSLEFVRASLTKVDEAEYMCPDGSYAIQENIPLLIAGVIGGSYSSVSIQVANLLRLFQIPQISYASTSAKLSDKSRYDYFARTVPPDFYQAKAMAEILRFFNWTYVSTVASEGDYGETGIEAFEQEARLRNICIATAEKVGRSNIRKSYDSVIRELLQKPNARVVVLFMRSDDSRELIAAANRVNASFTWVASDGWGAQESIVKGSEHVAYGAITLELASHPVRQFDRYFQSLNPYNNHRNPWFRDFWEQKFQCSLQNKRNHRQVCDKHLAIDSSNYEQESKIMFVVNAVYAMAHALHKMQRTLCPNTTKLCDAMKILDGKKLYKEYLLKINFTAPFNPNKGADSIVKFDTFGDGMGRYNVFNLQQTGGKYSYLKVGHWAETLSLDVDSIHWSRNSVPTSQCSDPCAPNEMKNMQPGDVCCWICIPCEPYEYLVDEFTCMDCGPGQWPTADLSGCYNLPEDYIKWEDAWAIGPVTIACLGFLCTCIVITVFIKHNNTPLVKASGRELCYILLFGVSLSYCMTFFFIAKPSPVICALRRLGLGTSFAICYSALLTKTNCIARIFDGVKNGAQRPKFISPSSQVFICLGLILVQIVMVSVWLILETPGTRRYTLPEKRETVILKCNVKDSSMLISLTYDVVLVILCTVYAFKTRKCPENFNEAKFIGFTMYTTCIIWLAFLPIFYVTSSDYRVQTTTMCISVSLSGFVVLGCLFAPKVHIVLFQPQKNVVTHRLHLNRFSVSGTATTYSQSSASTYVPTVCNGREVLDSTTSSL

On to `Cc1c(OCc2cccc(COc3ccc(C(=O)O)cc3)c2)ccc(C(=O)CC(C)C)c1O` [compound 125], for which, in assay [1], the “mGlu3 PAM Max” value worked out at 13.9 ± 3.1% and the EC50 was greater than 30 µM. For the same compound, in assay [2], the “mGlu2 PAM Max” value is on record as 82.7 ± 7.2% and the EC50 stood at 0.238 ± 0.051 µM.

As for `COC(=O)c1ccc(OCCCCOc2ccc(C(=O)CC3CCCC3)c(C)c2C)cc1` [Compound 15, Methyl 4-(4-(4-(2-cyclopentylacetyl)-2,3-dimethylphenoxy)butoxy)benzoate], the EC50 in assay [1] and in assay [2] was greater than 30 µM each time.

As to `COc1ccc(C(=O)O)cc1OCCCCOc1ccc(C(=O)CCC(C)(C)C)c(O)c1C` [compound 96, 3-(4-(4-(4,4-Dimethylpentanoyl)-3-hydroxy-2-methylphenoxy)butoxy)-4-methoxybenzoic acid], the results for the Emax in assay [1] and in assay [2] were 95.3 ± 5% and 88.6 ± 0.9%, respectively.

Turning to `Cc1c(OCCCCOc2cccc(C(=O)O)c2)ccc(C(=O)CC(C)C)c1C` [Compound 22, 3-(4-(2,3-Dimethyl-4-(3-methylbutanoyl)phenoxy)butoxy)benzoic acid], the EC50 in assay [1] and in assay [2] was greater than 30 µM each time.

Turning to `COC(=O)c1ccc(OCCCCOc2ccc(C(=O)CC(C)C)c(O)c2C)cc1` [Compound 16, Methyl 4-(4-(3-hydroxy-2-methyl-4-(3-methylbutanoyl)phenoxy)butoxy)benzoate], the EC50 in assay [1] and in assay [2] was greater than 30 µM in each case.

In the case of `CC(C)(C)CC(=O)c1ccc(OCc2cccc(-c3cccc(C(=O)O)c3)c2)c(Br)c1O` [Compound 193, 3′-((2-Bromo-4-(3,3-dimethylbutanoyl)-3-hydroxyphenoxy)methyl)-[1,1′-biphenyl]-3-carboxylic acid], the figures for the Emax in assay [1] and in assay [2] were 74 ± 9.5% and 79.5 ± 20.8%, respectively.

Regarding `COC(=O)c1ccc(OCc2cccc(COc3ccc(C(=O)CC(C)C)c(C)c3C)c2)cc1` [compound 116], the EC50 in assay [1] and in assay [2] was greater than 30 µM throughout.

Regarding `Cc1c(OCc2cccc(-c3ccc(Cl)c(C(=O)O)c3)c2)ccc(C(=O)CC(C)C)c1C` [compound 170], the EC50 in assay [1] is greater than 30 µM; in assay [2] it was 0.815 ± 0.05 µM. In assay [2], the “mGlu2 PAM Max” value worked out at 70.2 ± 2.9%.

On to `Cc1c(OCc2cccc(-c3ccc(C(=O)O)c(Cl)c3)c2)ccc(C(=O)CC(C)(C)C)c1O` [compound 141, 3-Chloro-3′-((4-(3,3-dimethylbutanoyl)-3-hydroxy-2-methylphenoxy)methyl)-[1,1′-biphenyl]-4-carboxylic acid], for which, in assay [1], the EC50 worked out at 0.656 ± 0.265 µM and the Emax is 54.9 ± 9.7%. Further, in assay [2], the EC50 is 0.391 ± 0.103 µM and the Emax came to 67 ± 6.4%.

In the case of `COc1ccc(C(=O)NCC(C)C)cc1OCCCCOc1ccc(C(=O)CC(C)(C)C)c(O)c1C` [compound 110, 3-(4-(4-(3,3-Dimethylbutanoyl)-3-hydroxy-2-methylphenoxy)butoxy)-N-isobutyl-4-methoxybenzamide], in assay [1], the EC50 is greater than 30 µM and the Emax stood at 31.7 ± 8.5%. For the same compound, in assay [2], the EC50 was 6.4 ± 0.389 µM and the Emax was found to be 48.4 ± 5.5%.

In the case of `Cc1c(OCc2cccc(-c3ccc(Cl)c(C(=O)O)c3)c2)ccc(C(=O)CC(C)C)c1O` [compound 169], in assay [1], the “mGlu3 PAM Max” value was 76.1 ± 5.1% and the EC50 was found to be 2.99 ± 0.359 µM. Further, in assay [2], the “mGlu2 PAM Max” value was found to be 77.6 ± 1.8% and the EC50 is 0.278 ± 0.049 µM.

In the case of `Cc1c(OCc2cccc(-c3ccc(C(=O)O)cc3)c2)ccc(C(=O)CC(C)(C)C)c1O` [compound 132, 3′-((4-(3,3-Dimethylbutanoyl)-3-hydroxy-2-methylphenoxy)methyl)-[1,1′-biphenyl]-4-carboxylic acid], in assay [1], the EC50 turned out to be 1.64 ± 0.487 µM and the Emax was 57.5 ± 20.9%. In assay [2], the EC50 amounted to 0.561 ± 0.063 µM and the Emax stood at 90.5 ± 13.8%.

As for `Cc1c(OCc2cccc(-c3cc(C(=O)O)cc([N+](=O)[O-])c3)c2)ccc(C(=O)CC(C)(C)C)c1O` [compound 146, 3′-((4-(3,3-Dimethylbutanoyl)-3-hydroxy-2-methylphenoxy)methyl)-5-nitro-[1,1′-biphenyl]-3-carboxylic acid], in assay [1], the EC50 is 2.13 ± 0.812 µM and the Emax was 74.5 ± 11.7%. Also, in assay [2], the EC50 amounted to 0.564 ± 0.156 µM and the Emax came out at 98.7 ± 5.9%.

In the case of `Cc1c(OCc2cccc(-c3cccc(C(=O)O)c3)c2)ccc(C(=O)CC(C)(C)C)c1O` [compound 127, 3′-((4-(3,3-Dimethylbutanoyl)-3-hydroxy-2-methylphenoxy)methyl)-[1,1′-biphenyl]-3-carboxylic acid], in assay [1], the EC50 worked out at 0.343 ± 0.04 µM and the Emax turned out to be 104 ± 2.4%. Also, in assay [2], the 50% effective concentration (EC50) worked out at 0.219 ± 0.043 µM and the Emax was 91.1 ± 2.6%.

Turning to `COc1ccc(-c2cccc(COc3ccc(C(=O)CC(C)(C)C)c(O)c3C)c2)cc1C(=O)O` [compound 140, 3′-((4-(3,3-Dimethylbutanoyl)-3-hydroxy-2-methylphenoxy)methyl)-4-methoxy-[1,1′-biphenyl]-3-carboxylic acid], in assay [1], the EC50 stood at 8.41 ± 4.84 µM and the Emax is 67.2 ± 13.3%. In assay [2], the EC50 was 0.489 ± 0.073 µM and the Emax is 86.1 ± 6.1%.

For `COc1ccc(/C(N)=N/O)cc1OCCCCOc1ccc(C(=O)CC(C)(C)C)c(O)c1C` [compound 97, (Z)-3-(4-(4-(3,3-Dimethylbutanoyl)-3-hydroxy-2-methylphenoxy)butoxy)-N′-hydroxy-4-methoxybenzimidamide], in assay [1], the EC50 is greater than 30 µM and the Emax was determined as 24.4 ± 4.7%. Besides, in assay [2], the EC50 is greater than 10 µM and the Emax is 57.2 ± 1.4%.

For the compound `Cc1c(OCc2cccc(-c3cccc(S(=O)(=O)O)c3)c2)ccc(C(=O)CC(C)(C)C)c1O` [compound 164, 3′-((4-(3,3-Dimethylbutanoyl)-3-hydroxy-2-methylphenoxy)methyl)-[1,1′-biphenyl]-3-sulfonic acid], the results for the Emax in assay [1] and in assay [2] were 103 ± 1.9% and 101 ± 2.8%, respectively.

Turning to `COc1ccc(C(=O)NS(C)(=O)=O)cc1OCCCCOc1ccc(C(=O)CC(C)(C)C)c(O)c1C` [compound 93, 3-(4-(4-(3,3-Dimethylbutanoyl)-3-hydroxy-2-methylphenoxy)butoxy)-4-methoxy-N-(methylsulfonyl)benzamide], in assay [1], the 50% effective concentration (EC50) is 0.265 ± 0.05 µM and the Emax turned out to be 110 ± 1.3%. Also, in assay [2], the EC50 worked out at 0.25 ± 0.055 µM and the Emax came to 98.1 ± 1.1%.

Turning to `Cc1c(OCc2cccc(-c3cccc(C(=O)NS(C)(=O)=O)c3)c2)ccc(C(=O)CC(C)(C)C)c1O` [compound 156, 3′-((4-(3,3-Dimethylbutanoyl)-3-hydroxy-2-methylphenoxy)methyl)-N-(methylsulfonyl)-[1,1′-biphenyl]-3-carboxamide], the Emax was found to be 103 ± 1.7% in assay [1] and 105 ± 2.1% in assay [2].

With `Cc1c(OCCCCOc2cccc(C(=O)O)c2)ccc(C(=O)CC2CCCC2)c1C` [Compound 23, 3-(4-(4-(2-Cyclopentylacetyl)-2,3-dimethylphenoxy)butoxy)benzoic acid], the EC50 in assay [1] and in assay [2] was greater than 30 µM each time.

`Cc1c(OCc2cccc(-c3cc(F)cc(C(=O)O)c3)c2)ccc(C(=O)CC(C)(C)C)c1O` [compound 136, 3′-((4-(3,3-Dimethylbutanoyl)-3-hydroxy-2-methylphenoxy)methyl)-5-fluoro-[1,1′-biphenyl]-3-carboxylic acid]: the values for the EC50 in assay [1] and in assay [2] were 0.496 ± 0.086 µM and 0.308 ± 0.04 µM, respectively. In addition, the Emax in assay [1] turned out to be 77.4 ± 7.1%; in assay [2], 93.3 ± 2.1%.

Take `COc1ccc(-c2noc(=S)[nH]2)cc1OCCCCOc1ccc(C(=O)CC(C)(C)C)c(O)c1C` [compound 99, 1-(2-Hydroxy-4-(4-(2-methoxy-5-(5-thioxo-4,5-dihydro-1,2,4-oxadiazol-3-yl)phenoxy)butoxy)-3-methylphenyl)-3,3-dimethylbutan-1-one]: the concentration for a half-maximal effect (EC50) in assay [1] turned out to be 1.15 ± 0.307 µM; in assay [2] it was 1.03 ± 0.07 µM. Moreover, the Emax in assay [1] was determined as 63.6 ± 5%; in assay [2], 81%.

Consider `Cc1c(OCc2cccc(COc3ccc(C(=O)O)cc3)c2)ccc(C(=O)CC2CCCC2)c1C` [compound 124], for which the EC50 in assay [1] and in assay [2] was greater than 30 µM in each case.

For the compound `Cc1c(OCCCCOc2ccccn2)ccc(C(=O)CC(C)C)c1C` [Compound 183], the EC50 in assay [1] is greater than 30 µM; in assay [2], greater than 10 µM.

With `COc1ccc(C(=O)NC2CC2)cc1OCCCCOc1ccc(C(=O)CC(C)(C)C)c(O)c1C` [compound 109, N-Cyclopropyl-3-(4-(4-(3,3-dimethylbutanoyl)-3-hydroxy-2-methylphenoxy)butoxy)-4-methoxybenzamide], in assay [1], the EC50 came to 0.578 ± 0.012 µM and the Emax was 106 ± 5.1%. Moreover, in assay [2], the EC50 came out at 0.765 ± 0.005 µM and the Emax turned out to be 101.5 ± 0.9%.

As to `Cc1c(OCCCCOc2ccc(C#N)cc2)ccc(C(=O)CC(C)C)c1C` [compound 77], the EC50 in assay [1] and in assay [2] was greater than 30 µM each time.

Regarding `Cc1c(OCc2cccc(-c3cccc(C#N)c3)c2)ccc(C(=O)CC(C)(C)C)c1O` [compound 151, 3′-((4-(3,3-Dimethylbutanoyl)-3-hydroxy-2-methylphenoxy)methyl)-[1,1′-biphenyl]-3-carbonitrile], the 50% effective concentration (EC50) in assay [1] and in assay [2] was greater than 10 µM in each case. For the same compound, the Emax in assay [1] turned out to be 35.5 ± 3.8%; in assay [2] it was 50.2 ± 7.4%.

With `Cc1c(OCCCCOc2ccc(C(=O)O)cc2)ccc(C(=O)CC(C)C)c1C` [Compound 18, 4-(4-(2,3-Dimethyl-4-(3-methylbutanoyl)phenoxy)butoxy)benzoic acid], the EC50 in assay [1] and in assay [2] was greater than 30 µM in each case.

For `CONC(=O)c1ccc(OC)c(OCCCCOc2ccc(C(=O)CC(C)(C)C)c(O)c2C)c1` [compound 90, 3-(4-(4-(3,3-Dimethylbutanoyl)-3-hydroxy-2-methylphenoxy)butoxy)-N,4-dimethoxybenzamide], in assay [1], the concentration for a half-maximal effect (EC50) was found to be 6.6 ± 1.45 µM and the Emax came to 78.7 ± 6.2%. Also, in assay [2], the EC50 worked out at 3.89 ± 0.317 µM and the Emax is 82.4 ± 3.4%.
